Values quoted from earlier work in patent US5683715A, “Taxane-containing phosphatidylcholine liposomes” (The Liposome Company, Inc., priority 1995, dated 1997).

Key:
tubulin = conditions: Schiff and Horowitz 1980
[1] = tested on: ovarian and breast cancers, malignant melanoma, colon cancer, leukemias and lung cancer; conditions: literature

## CC(=O)O[C@H]1C(=O)[C@@]2(C)[C@H]([C@H](OC(=O)c3ccccc3)[C@]3(O)C[C@H](OC(=O)[C@H](O)[C@@H](NC(=O)c4ccccc4)c4ccccc4)C(C)=C1C3(C)C)[C@]1(OC(C)=O)CO[C@@H]1C[C@@H]2O [Paclitaxel]
tubulin
  Concentrations of optimal effect on polymerization and stabilization of microtubules: near stoichiometric equivalence with tubulin dimers
[1]
  Activity against cancers: activity against ovarian and breast cancers, as well as against malignant melanoma, colon cancer, leukemias and lung cancer
